From patent US20240165052A1 (priority 2021, published 2024)

What was measured:
[1] = system: porcine mucosa (mucosa oesophagus); assay: in vitro permeation of (S)-ketamine, Franz diffusion cell; settings: 37° C.
[2] = pH of phosphate buffer (donor medium) with (S)-ketamine HCl or OTF; format: physicochemical
[3] = at 20° C.; cited from earlier work

CNC1(c2ccccc2Cl)CCCCC1=O (racemic) [(S)-ketamine, (S)-(±)-2-(2-chlorophenyl)-2-(methylamino)cyclohexan-1-one]
permeation rate of S-ketamine ([1]; 2.77 mg (S)-ketamine HCl on mucosa, acidic buffer as donor, FIG. 1): lowest permeation rate
permeation of S-ketamine ([1]; 2.77 mg (S)-ketamine HCl on mucosa, neutral buffer as donor, FIG. 1): best
permeation rate of S-ketamine ([1]; 0.287 cm^2 OTF formulation 1 + 70 μL acidic buffer, FIG. 2): lowest permeation rate
permeation of S-ketamine ([1]; 0.287 cm^2 OTF formulation 1 + 70 μL alkaline buffer, FIG. 2): best

CN[C@]1(c2ccccc2Cl)CCCCC1=O.Cl [(S)-ketamine HCl]
Buffer + (S)-ketamine HCl pH at 22° C. ([2]; acidic buffer (pH 4.99 at 22° C.)): 4.92
Buffer + (S)-ketamine HCl pH at 22° C. ([2]; alkaline buffer (pH 8.33 at 22° C.)): 7.81
Buffer + (S)-ketamine HCl pH at 22° C. ([2]; neutral buffer (pH 7.46 at 22° C.)): 6.64

NC(CO)(CO)CO [TRIS, tris(hydroxymethyl)aminomethane]
pKs [3]: 8.2
